For assay [1], the system named is Keap1-dependent Nrf2 ubiquitination. In words: Keap1-dependent Nrf2 ubiquitination in 293T cells. In kind it is cell-based, human. The conditions noted are these: WT Keap1, 30 μM PBA 20 h, 5 μM MG132 4 h. As to the method: Alkylation of the BTB domain of Keap1 by covalent modifiers contributes to the disruption of the Keap1-Cul3 interactions, leading to Nrf2 activation. Next, we investigated the effect of PBA on the modulation of Nrf2 ubiquitination as Nrf2 stability is controlled by ubiquitin-mediated proteasomal degradation. First, 3X Flag-Keap1, Myc-Nrf2 and Ub plasmids were transfected into 293T cells and then, the cells were treated with 30 μM PBA for 20 h and 5 μM MG132 for another 4 h. Cell lysates were pulled down using anti-Myc beads, and immunopurified Nrf2 was examined for the occurrence of Ub by western blotting. […] As shown in Figure 6E-F, PBA could disrupt the interaction of Keap1 and Cul3 in WT-Keap1 cells, while the disruption was blocked in the Cys77S and Cys434-Keap1 mutant cells.
Figure 6 PBA suppresses Keap1-mediated ubiquitination of Nrf2 by disrupting the interaction between Cul3 and Keap1. (A and B) PBA suppressed Nrf2 ubiquitination in a Keap1-Cys77 and C434-dependent manner. First, 293T cells were transfected with WT-Keap1 or C77S and C434S-Keap1, Myc-Nrf2, and Ub plasmids for 24 h and treated with 30 μM PBA. The cell lysates were immunoprecipitated using anti-Myc beads, and the ubiquitination level was evaluated using the anti-Ub antibody. (C and D) PBA induced the dissociation of the Nrf2-Keap1 complex. Then, 293T cells were cotransfected with WT-Keap1 and Flag-Nrf2 plasmids for 24 h and treated with 30 μM PBA for 12 h. The cell lysates were immunoprecipitated with the anti-Flag antibody, and the level of Nrf2 was assessed using the anti-Nrf2 antibody. (E and F) PBA disrupted the interaction between Cul3 and Keap1. […] The cell lysates were immunoprecipitated with the anti-Flag antibody, and the level of Cul3 was measured using the anti-Cul3 antibody. #p < 0.05, ##p < 0.01, ###p < 0.001, the control vs DMSO; *p < 0.05,**p < 0.01, ***p < 0.001, PBA or tBHQ vs DMSO. […] Cell viability was measured by MTT assays. #p < 0.05, ###p < 0.001, the control vs OGD/R; **p < 0.01, ***p < 0.001, OGD/R+PBA vs OGD/R.

Assay [2] concerns T1, interaction between Keap1 and Nrf2.
T1 construct: expressed in transfected cells; host or cells: 293T
In words: Co-IP of Keap1 and Nrf2 in 293T cells. Conditions: WT-Keap1, 30 μM PBA. In kind it is cell-based, human. As to the method: Figure 6 PBA suppresses Keap1-mediated ubiquitination of Nrf2 by disrupting the interaction between Cul3 and Keap1. (A and B) PBA suppressed Nrf2 ubiquitination in a Keap1-Cys77 and C434-dependent manner. First, 293T cells were transfected with WT-Keap1 or C77S and C434S-Keap1, Myc-Nrf2, and Ub plasmids for 24 h and treated with 30 μM PBA. The cell lysates were immunoprecipitated using anti-Myc beads, and the ubiquitination level was evaluated using the anti-Ub antibody. (C and D) PBA induced the dissociation of the Nrf2-Keap1 complex. Then, 293T cells were cotransfected with WT-Keap1 and Flag-Nrf2 plasmids for 24 h and treated with 30 μM PBA for 12 h. The cell lysates were immunoprecipitated with the anti-Flag antibody, and the level of Nrf2 was assessed using the anti-Nrf2 antibody. (E and F) PBA disrupted the interaction between Cul3 and Keap1. The 293T cells were transfected with the WT-Keap1 or C77S-C434S-Keap1 plasmids for 24 h and treated with 30 μM PBA for 12 h. The cell lysates were immunoprecipitated with the anti-Flag antibody, and the level of Cul3 was measured using the anti-Cul3 antibody. #p < 0.05, ##p < 0.01, ###p < 0.001, the control vs DMSO; *p < 0.05,**p < 0.01, ***p < 0.001, PBA or tBHQ vs DMSO. […] Primary mouse cardiomyocytes were transfected with mouse WT-Keap1 or C77S and C434S-Keap1 mutant vectors. After 24 h, the cells were treated with the indicated doses of PBA and subjected to OGD conditions as described in the Method section for 3 h and under normal conditions for another 18 h. Cell viability was measured by MTT assays. #p < 0.05, ###p < 0.001, the control vs OGD/R; **p < 0.01, ***p < 0.001, OGD/R+PBA vs OGD/R.
To investigate the effect of PBA on the interaction of Keap1 and Nrf2, we transfected 293T cells with Flag-Keap1 and Myc-Nrf2 plasmids, and treated them with 30 μM PBA for 24 h. The protein expression of Nrf2 was measured by western blotting analysis followed by immunoprecipitation with Flag beads.

For another assay, the system named is OGD/R-induced H9c2 cells. In words: OGD/R-induced injury, MTT viability, H9c2. Conditions: 100 μM, compared with PBA. In kind it is cell-based, rat. Here is the method:
For OGD/R treatment, H9c2 cells were washed twice with phosphate buffered saline (PBS). The medium was changed to glucose and serum free DMEM, and H9c2 cells were incubated in an incubator with 95% N2 and 5% CO2 at 37 °C. After 6 h, the medium was replaced with DMEM containing 10% FBS and 1% PS. Then H9c2 cells were returned to a normal incubator with 5% CO2 balanced with air at 37 °C for the indicated time.
Cell viability was determined by MTT assays. PBA was prepared to a stock solution dissolved in dimethyl sulfoxide (DMSO). RAW264.7, H9c2 cells, primary mouse cardiomyocytes were treated with different doses of PBA, and DMSO only as control for 48 h for the toxicity. In addition, H9c2 cells or primary mouse cardiomyocytes were treated with the indicated doses of PBA, diazoxide as positive control, DMSO only as control, then cultured with or without OGD/R treatment. At the end of the experiments, MTT was added into each well at the concentration of 0.5 mg/ml, and incubated at 37 °C for 4 h. After removal of the supernatant, 150 μL of DMSO was added to solubilize the formazan products. And the solution was measured at the absorbance of 490 nm by a spectrophotometer (Thermo Fisher Scientific, MA, USA). The results of the MTT assay in all groups were normalized to the control group with DMSO only treatment.

Regarding `CC(C)(C)c1cc(O)ccc1O` [tBHQ, reference compound], the “Keap1-dependent Nrf2 ubiquitination” value in assay [1] is “significantly suppressed”. Also, the “interaction between Keap1 and Nrf2 (Co-IP)” value in assay [2] is “did not affect it”. As to `CC1=NS(=O)(=O)c2cc(Cl)ccc2N1` [diazoxide, reference compound], the “protective effect against OGD/R induced injury (positive control)” value with OGD/R-induced H9c2 cells is listed as “protective effect of PBA seemed equal to that of 100 μM diazoxide”.

The values are drawn from PMC7738871, “Covalent modification of Keap1 at Cys77 and Cys434 by pubescenoside a suppresses oxidative stress-induced NLRP3 inflammasome activation in myocardial ischemia-reperfusion injury” (Theranostics, 2021).
